“Also recorded” adds a separate entry of the source.
What was measured:
Type in all cases: biochemical
mouse 9cRDH (m9cRDH) [1] = molecular target: T1, mouse 9cRDH (m9cRDH) (Mus musculus, UniProt O55240); test: Retinaldehyde isomer reduction by recombinant mouse 9cRDH; conditions: for m9cRDH specific activity, retinaldehyde reduction: substrate 10 μM, 15 min, 150–180 μg protein/assay, NADH, pH 5.0
T1 sequence (O55240 1-318): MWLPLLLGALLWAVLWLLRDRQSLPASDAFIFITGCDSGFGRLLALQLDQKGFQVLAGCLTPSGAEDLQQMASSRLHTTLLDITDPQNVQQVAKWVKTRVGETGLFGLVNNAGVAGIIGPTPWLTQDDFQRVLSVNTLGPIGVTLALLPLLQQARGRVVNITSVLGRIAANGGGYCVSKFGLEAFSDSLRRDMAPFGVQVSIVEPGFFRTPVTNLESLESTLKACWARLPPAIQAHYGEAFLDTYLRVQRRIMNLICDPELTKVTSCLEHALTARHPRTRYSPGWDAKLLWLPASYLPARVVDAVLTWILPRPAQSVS
Method: (§1) Enzymatic Assays. Assays for human and mouse 9cRDH were carried out essentially as were described previously for human 9cRDH (19). For expression of mouse 9cRDH a cDNA clone obtained from a mouse liver cDNA library was employed (see below). Recombinant human or mouse 9cRDH expressed in CHO cells was incubated in an assay mixture containing 10 μM 9-cis-retinol (added in 0.02 mL ethanol) and 2 mM NAD in 10 mM Hepes, pH 8.0, containing 150 mM KCl, 1 mM EDTA, and 50 μg phosphotidyl choline for 15 min at 37° C. (final assay volume of 0.6 ml) with agitation. This assay mixture was used routinely to measure oxidation of 9-cis-retinol to 9-cis-retinaldehyde and in studies assessing oxidation of 11-cis-, 13-cis- and all-trans-retinol to their corresponding aldehydes. For some experiments, the ability of human or mouse 9cRDH to catalyze the reduction of 9-cis-, 11-cis-, 13-cis- or all-trans-retinaldehyde was assessed. To assess these reduction reactions, incubations were carried out in 100 mM sodium acetate, pH 5.0, containing 50 μg phosphotidyl choline and 2 mM NADH (or 2 mM NADPH) in a final volume of 0.6 ml for 15 min at 37° C.
(§2) Immediately following incubation of the assay, the assay mixture was denatured with an equal volume of absolute ethanol (0.6 ml), and the retinoids extracted into 2.5 ml of hexane. Following one backwash of the hexane extract with 0.5 ml of deionized water, the hexane was evaporated to dryness under a gentle stream of N2. The extracted retinoids were immediately redissolved in 120 μl of hexane and analyzed by normal phase HPLC as described below.

human 9cRDH (h9cRDH) [2] = molecular target: T2, human 9cRDH (h9cRDH) (Homo sapiens, UniProt Q92781); test: Retinaldehyde isomer reduction by recombinant human 9cRDH; conditions: for h9cRDH specific activity, retinaldehyde reduction: substrate 10 μM, 15 min, 150–180 μg protein/assay, NADH, pH 5.0
T2 sequence (Q92781 1-318): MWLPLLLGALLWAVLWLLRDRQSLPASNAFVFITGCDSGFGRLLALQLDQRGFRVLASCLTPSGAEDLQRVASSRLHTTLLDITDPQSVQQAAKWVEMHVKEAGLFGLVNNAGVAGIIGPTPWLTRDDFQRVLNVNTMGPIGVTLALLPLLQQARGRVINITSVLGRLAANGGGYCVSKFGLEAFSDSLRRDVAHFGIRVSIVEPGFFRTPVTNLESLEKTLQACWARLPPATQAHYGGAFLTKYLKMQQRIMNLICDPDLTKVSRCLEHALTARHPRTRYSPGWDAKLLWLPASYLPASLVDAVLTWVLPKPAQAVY
Method: as §1, §2

mouse 9cRDH (m9cRDH) [3] = molecular target: T1, mouse 9cRDH (m9cRDH); test: Retinol isomer oxidation by recombinant mouse 9cRDH; conditions: for m9cRDH specific activity, retinol oxidation: substrate 10 μM, 15 min, 150–180 μg protein/assay, NAD+
Method: as §1, §2

human 9cRDH (h9cRDH) [4] = molecular target: T2, human 9cRDH (h9cRDH); test: Retinol isomer oxidation by recombinant human 9cRDH (substrate and cofactor specificity); conditions: for h9cRDH specific activity, retinol oxidation: substrate 10 μM, 15 min, 150–180 μg protein/assay, NAD+
Method: Enzymatic Assay of Retinol Dehydrogenase Activity. Transfected CHO cell pellets were homogenized in PBS at 4° C. using 50 strokes of a Dounce homogenizer For assay of retinol dehydrogenase activity, aliquots of unfractionated CHO cell homogenate were incubated with 10, μM retinol (either as the all-trans, 13-cis, or 9-cis isomer added in ethanol) and either 2 mM NAD+ or 2 mM NADP+ in 10 mM Hepes containing 150 mM KCl, 1 mM EDTA, and 10, μg/ml phosphotidyl choline at pH 8.0 and 37° C. for prechosen time intervals. The final assay volume was 0.6 ml. Assays were routinely carried out in amber glass tubes that had been flushed with N2 to shield the retinoids from both light and O2 All subsequent extractions and procedures were carried out in a manner that minimized exposure of the retinoids to light and O2.
Immediately following incubation, the assay mixture was denatured with an equal volume of absolute ethanol (0.6 ml), and the retinoids were extracted into 3 ml of HPLC grade hexane. Following one backwash of the hexane extract with 0.5 ml of deionized water, the hexane was evaporated to dryness under a gentle stream of N2, and the extracted retinoids were immediately redissolved in 120 μl of hexane and analyzed by normal phase HPLC (see below).
HPLC Procedures. Stereoisomers of both retinol and retinaldehyde were separated on a 4.6×250-mm Vydac 101HS54 silica column using hexane:n-propanol:1-octanol (98.9:1.0:0.1 v/v) flowing at 1.5 ml/min as the mobile phase. The running column was preceded by a silica guard column. Retinols and retinaldehydes were detected by UV absorbance at 350 nm. Retention times for all-trans-, 13-cis-, and 9-cis-retinols were established using purified compounds obtained as described above. Retention times for all-trans-, 13-cis-, and 9-cis-retinaldehyde were determined using commercial standards (Sigma). Quantities of each retinol and retinaldehyde isomer present in extracts were determined by comparisons of the integrated areas under the HPLC peaks with a standard curve constructed relating integrated peak area with known masses of each retinoid isomer. The concentrations of each retinoid isomer were determined by UV-visible spectrophotometry using published extinction coefficients for each retinol and retinaldehyde isomer (26).
as §1, §2

[5] = molecular target: T3, human 9-cis retinol dehydrogenase (9cRDH) (Homo sapiens, UniProt Q92781); test: Inhibition of recombinant human 9cRDH activity (9-cis-retinol oxidation, CHO cell homogenate, HPLC); conditions: for inhibition of human 9cRDH activity (in words): 10 μM 9-cis-retinol
T3 sequence (Q92781 1-318): T2 sequence (Q92781 1-318)

mouse 9cRDH [6] = molecular target: T4, mouse 9cRDH (Mus musculus, UniProt O55240); test: Inhibition of recombinant mouse 9cRDH activity (9-cis-retinol oxidation, CHO cell homogenate, HPLC)
T4 sequence (O55240 1-318): T1 sequence (O55240 1-318)

human 9cRDH = molecular target: T5, human 9cRDH (Homo sapiens, UniProt Q92781); test: Hydroxysteroid oxidation/reduction by human 9cRDH (TLC); conditions: 37° C., 1.5 h; TLC detection limit approximately 3 pmol/min/mg protein
T5 sequence (Q92781 1-318): T2 sequence (Q92781 1-318)
Method: (§3) To investigate whether human or mouse 9cRDH will catalyze oxidations or reductions of 3α-hydroxy-, 11β-hydroxy- or 17β-hydroxysteroids, these steroids were incubated at 37° C. for 1.5 h in the assay media described above for assessing oxidation/reduction of 9-cis-retinol/9-cis-retinaldehyde. The Hepes NAD^+-containing assay buffer described above was employed to assess hydroxysteroid oxidation and to assess hydroxysteroid reduction the acetate buffer containing NADH (or NADPH) assay buffer (see above) was employed. Immediately following incubation, the steroids were extracted as described above for retinoids. The final hexane extract was evaporated to near dryness and this was spotted onto a silica high performance TLC plate (Whatman Inc., Clifton, N.J.) and developed in hexane/diethyl ether/acetic acid (70:30:1, v/v) or ethyl acetate/chloroform (25:75, v/v). Steroids were visualized by charring after treatment of the TLC plates with an areosol of 10% (v/v) H2SO4 in methanol.
(§4) Biswas and Russell (32) have reported that rat liver all-trans-retinol dehydrogenase type I also uses several 3α-hydroxy- and 17β-hydroxysteroids as substrates. Chai et al. (18) also reported that hydroxysteroids are substrates for mouse liver cis-retinol dehydrogenase. Since human 9cRDH is approximately 50% identical to the rat liver enzymes and shares approximately 63% homology to mouse liver cis-retinol dehydrogenase, next investigated was whether these steroids might also be substrates for 9cRDH. To test this possibility it was determined whether human or mouse 9cRDH would catalyze oxidation of 5α-androstan-3α, 17β-diol, androsterone, testosterone or dihydrotestosterone to corresponding ketone products. Also investigated was whether human and/or mouse 9cRDH could catalyze reduction of the corresponding ketones. […] It is estimate, based on the lower limits for hydroxysteroid detection by TLC, that it would be possible to detect rates of hydroxysteroid oxidation as low as approximately 3 pmol/min/mg protein. This rate of hydroxysteroid oxidation is at least 2-orders of magnitude lower than Vmax values reported by Biswas and Russell (32) and Chai et al. (18) for oxidation of hydroxysteroids in their studies of enzymes that are able to oxidize both retinol and hydroxysteroids.

mouse 9cRDH [7] = molecular target: T4, mouse 9cRDH; test: Hydroxysteroid oxidation/reduction by mouse 9cRDH (TLC); conditions: 37° C., 1.5 h; TLC detection limit approximately 3 pmol/min/mg protein
Method: as §3, §4

[8] = equimolar concentrations, any substrate

Molecule: CC1=C(/C=C/C(C)=C/C=C/C(C)=C\C=O)C(C)(C)CCC1 [13-cis-retinaldehyde]
- m9cRDH specific activity, retinaldehyde reduction (mouse 9cRDH (m9cRDH) [1]): 748 pmol/min/mg protein
- h9cRDH specific activity, retinaldehyde reduction (human 9cRDH (h9cRDH) [2]): 744 pmol/min/mg protein

Molecule: CC1=C(/C=C/C(C)=C/C=C/C(C)=C\CO)C(C)(C)CCC1 [13-cis-retinol]
- m9cRDH specific activity, retinol oxidation (mouse 9cRDH (m9cRDH) [3]): 2.0 pmol/min/mg protein
- rate of oxidation relative to that observed for 9-cis-retinol (human 9cRDH (h9cRDH) [4]; first series, 2 mM NAD+, 10 μM retinol): 10%
- h9cRDH specific activity, retinol oxidation (human 9cRDH (h9cRDH) [4]): 0.3 pmol/min/mg protein

Molecule: NC(=O)c1ccc[n+]([C@@H]2O[C@H](COP(=O)([O-])OP(=O)(O)OC[C@H]3O[C@@H](n4cnc5c(N)ncnc54)[C@H](OP(=O)(O)O)[C@@H]3O)[C@@H](O)[C@H]2O)c1 [NADP+]
- reaction rate supported relative to NAD+, mouse 9cRDH retinol oxidation (mouse 9cRDH (m9cRDH) [3]; [8]): ≤ 10%
- cofactor activity relative to NAD+ for 9-cis-retinol oxidation (human 9cRDH (h9cRDH) [4]; both at 2 mM): 8%
- reaction rate supported relative to NAD+, human 9cRDH retinol oxidation (human 9cRDH (h9cRDH) [4]; [8]): ≤ 10%

Molecule: CC1=C(/C=C/C(C)=C/C=C/C(C)=C/CO)C(C)(C)CCC1 [all-trans Retinol, All-trans-retinol]
- m9cRDH specific activity, retinol oxidation (mouse 9cRDH (m9cRDH) [3]): 0.6 pmol/min/mg protein
- inhibition of human 9cRDH activity (in words) ([5]; listed as all-trans retinol): did not inhibit
- inhibition of human 9cRDH activity (in words) ([5]; listed as all-trans-retinol): only very weak inhibitors; also recorded: did not inhibit
- oxidation to the corresponding retinaldehyde by transfected CHO cell homogenate (in words) (human 9cRDH (h9cRDH) [4]; 2 mM NAD+): unable to catalyze the oxidation
- h9cRDH specific activity, retinol oxidation (human 9cRDH (h9cRDH) [4]): 0.5 pmol/min/mg protein
- inhibition of mouse 9cRDH activity (in words) (mouse 9cRDH [6]; 10 μM 9-cis-retinol): only very weak inhibitors

Molecule: CC1=C(/C=C/C(C)=C/C=C/C(C)=C/C=O)C(C)(C)CCC1 [all-trans-retinaldehyde]
- m9cRDH specific activity, retinaldehyde reduction (mouse 9cRDH (m9cRDH) [1]): 1.3 pmol/min/mg protein
- h9cRDH specific activity, retinaldehyde reduction (human 9cRDH (h9cRDH) [2]): 1.1 pmol/min/mg protein

Molecule: C[C@]12CC[C@@H](O)C[C@@H]1CC[C@@H]1[C@@H]2CC[C@]2(C)C(=O)CC[C@@H]12 [androsterone]
- inhibition of human 9cRDH activity by hydroxysteroids [5]: none of these hydroxysteroids inhibited
- catalysis by human 9cRDH of hydroxysteroid oxidation to ketone products (or reduction of the corresponding ketones) (human 9cRDH): Neither human nor mouse 9cRDH were found to catalyze
- catalysis by mouse 9cRDH of hydroxysteroid oxidation to ketone products (or reduction of the corresponding ketones) (mouse 9cRDH [7]): Neither human nor mouse 9cRDH were found to catalyze
- inhibition of mouse 9cRDH activity by hydroxysteroids (mouse 9cRDH [6]): none of these hydroxysteroids inhibited

Molecule: NADPH
- reaction rate supported relative to NADH, mouse 9cRDH retinaldehyde reduction (mouse 9cRDH (m9cRDH) [1]; [8]): ≤ 10%
- reaction rate supported relative to NADH, human 9cRDH retinaldehyde reduction (human 9cRDH (h9cRDH) [2]; [8]): ≤ 10%

From patent US7186534B1 (The Trustees of Columbia University in the City of New York, priority 1997, dated 2007)
